Test results published in PubChem BioAssay (NCI).
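Results reflect a 48-hour exposure of cells in 96-well plates to compound at five concentrations. TGI: total growth inhibition.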

What was measured:
Assay in all cases: DTP human tumour cell line panel, 48 h
[1] = test system: SK-MEL-5 melanoma
[2] = test system: SF-539 CNS
[3] = test system: CCRF-CEM leukemia
[4] = test system: UACC-62 melanoma
[5] = test system: RPMI-8226 leukemia
[6] = test system: HL-60(TB) leukemia
[7] = test system: NCI/ADR-RES ovarian
[8] = test system: PC-3 prostate
[9] = test system: UO-31 renal
[10] = test system: BT-549 breast

| SMILES | TGI [1] [µM] | TGI [2] [µM] | TGI [3] [µM] | TGI [4] [µM] | TGI [5] [µM] | TGI [6] [µM] | TGI [7] [µM] | TGI [8] [µM] | TGI [9] [µM] | TGI [10] [µM] |
| --- | --- | --- | --- | --- | --- | --- | --- | --- | --- | --- |
| CN(C)Cc1cc(C(=O)/C=C/c2ccc(O)cc2)cc(CN(C)C)c1O | 38.5 | > 100 | 88.3 | > 100 | 49.8 | 49.9 | > 100 | > 100 | > 100 | > 100 |
| COC(=O)[C@]12CC[C@H]3CN(C(=O)OCc4ccccc4)[C@H]([C@H]31)[C@H](c1ccco1)N2S(=O)(=O)c1ccc(C)cc1 | 33.3 | > 100 | > 100 | 36.1 | 35.9 | 58.7 | 61.2 | > 100 | 46.6 | 35.6 |
| COc1ccc(C(OCC2OC(n3cc(C)c(=O)[nH]c3=O)CC2n2cc(Cn3cc(F)c(=O)[nH]c3=O)nn2)(c2ccccc2)c2ccccc2)cc1 (stereo not given) | 30.1 | 23.9 | 9.85 | 29.2 | 8.93 | 5.83 | > 100 | 31.3 | 23.6 | 28.8 |
| C=CCO/N=C/c1cc(NC(=S)c2ccoc2C)ccc1Cl | 27.6 | 44.6 | > 100 | 35.5 | 12.1 | 46 | 29 | 27.6 | 19.4 | 34.7 |
| Brc1cccc(Nc2nc(-c3cccs3)nc3ccc(Br)cc23)c1 | 30.9 | > 100 | > 100 | 35.8 | > 100 | > 100 | > 100 | > 100 | > 100 | > 100 |
| CC(C)(C)NC(=O)/C(=C\Sc1ccccc1)c1ccc2c(c1)OCO2 | 32.8 | > 100 | > 100 | 57.9 | 94.4 | 41.9 | 97.5 | 73.7 | > 100 | > 100 |
| Cc1csc(-c2cn(C)c3c2C(=O)C(N)=CC3=O)n1 | 3.27 | > 100 | > 100 | 26.3 | > 22.8 | 14.8 | > 100 | > 100 | > 100 | > 100 |
| O=C(NCCN1CCOCC1)c1ccc2cc(C(=O)N3CC(CCl)c4ccc([N+](=O)[O-])cc43)[nH]c2c1 (stereo not given) | 4.73 | > 100 | > 100 | 43.4 | 9.09 | 94.7 | > 100 | 48.8 | > 100 | 92.3 |
| COc1ccc(C2(CC(C)O)SCCCS2)cc1 (stereo not given) | > 100 | > 100 | > 100 | > 100 | > 100 | > 100 | > 100 | > 100 | > 100 | > 100 |
| CC(C)COP(=O)(OCC(C)C)C(NS(=O)(=O)c1ccccc1)(C(F)(F)F)C(F)(F)F | 33 | 29.1 | 36.6 | 19.1 | 6.46 | 4.13 | 23.6 | 31.7 | 7.4 | 19.6 |
| CC1CC[C@@]2(OC1)OC1C[C@H]3[C@@H]4CC[C@H]5CC(OC6OC(CO)C(OC7OC(CO)C(O)C(O)C7OC7OC(CO)C(O)C(O)C7O)C(O)C6O)CCC5(C)[C@H]4CCC3(C)C1[C@@H]2C (stereo not given in full) | 13.5 | 2.92 | 4.1 | 16.5 | 6.96 | 11.6 | 13.8 | 1.52 | 1.94 | 3.62 |
| CC(=O)N/N=C1\NC(=O)C[C@H]2[C@@H]3CC=C4C[C@@H](OC(C)=O)CC[C@]4(C)[C@H]3CC[C@]12C | > 100 | 25.9 | > 100 | 59 | > 100 | > 100 | > 100 | > 100 | > 100 | 32.7 |
| COc1ccc2cc3c4cc5c(cc4cc[n+]3cc2c1OC)OCO5 | 14.1 | > 58.5 | 35.5 | 27.9 | 35.1 | > 65.5 | > 100 | > 100 | > 100 | 7.83 |
| O=c1cc(N=P(c2ccccc2)(c2ccccc2)c2ccccc2)n(-c2ccccc2)c(=O)n1-c1ccccc1 | 24.1 | 17.7 | 82.5 | 39.6 | 33 | 44.6 | > 100 | 18.6 | 34.6 | 95.6 |
